Results from ChEMBL document CHEMBL1201862, “PubChem BioAssay data set” (2004).
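Compound exposure: 48 hours, 5 concentrations, 96-well plates. The concentration for 50% growth inhibition is given as GI50.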 Activity calls are given as the source filed them. No stated cut-off is given here; in the data, active = GI50 up to about 1.1 µM and inactive = higher.

Assays:
Assay in all cases: inhibition of tumour cell growth, NCI panel, 48 h
A549 = test system: A549
IGROV-1 = test system: IGROV-1
HCT-116 = test system: HCT-116
MCF7 = test system: MCF7
TK-10 = test system: TK-10
HCC 2998 = test system: HCC 2998
SF-539 = test system: SF-539
SF-268 = test system: SF-268
SR = test system: SR
M14 = test system: M14
HT-29 = test system: HT-29
786-0 = test system: 786-0
HL-60 = test system: HL-60
MDA-MB-435 = test system: MDA-MB-435
SN12C = test system: SN12C
HOP-62 = test system: HOP-62
OVCAR-5 = test system: OVCAR-5
SK-MEL-5 = test system: SK-MEL-5
RXF 393 = test system: RXF 393
UO-31 = test system: UO-31
NCI-H226 = test system: NCI-H226
SNB-75 = test system: SNB-75
MDA-MB-231 = test system: MDA-MB-231
DU-145 = test system: DU-145
COLO 205 = test system: COLO 205
NCI/ADR-RES = test system: NCI/ADR-RES
MOLT-4 = test system: MOLT-4
Malme-3M = test system: Malme-3M
MDA-N = test system: MDA-N
PC-3 = test system: PC-3
SK-OV-3 = test system: SK-OV-3
NCI-H522 = test system: NCI-H522
RPMI-8226 = test system: RPMI-8226
CCRF-CEM = test system: CCRF-CEM
LOX IMVI = test system: LOX IMVI
SF-295 = test system: SF-295
T47D = test system: T47D
OVCAR-8 = test system: OVCAR-8
SW-620 = test system: SW-620
NCI-H23 = test system: NCI-H23
KM12 = test system: KM12
CAKI-1 = test system: CAKI-1
UACC-62 = test system: UACC-62
UACC-257 = test system: UACC-257
HCT-15 = test system: HCT-15
OVCAR-3 = test system: OVCAR-3
K562 = test system: K562
SNB-19 = test system: SNB-19
U-251 = test system: U-251
SK-MEL-28 = test system: SK-MEL-28
EKVX = test system: EKVX
ACHN = test system: ACHN

In the case of `C=C(C)C#CC(O)(C(=O)OC1CCN(C)CC1)C(C)C` (configuration not stated), the GI50 (A549) is reported as > 100 µM (inactive), the GI50 (IGROV-1) is reported as > 100 µM (inactive) and the GI50 (HCT-116) is reported as > 100 µM (inactive). The GI50 (MCF7) was > 100 µM (inactive), the GI50 (TK-10) was > 100 µM (inactive) and the GI50 (HCC 2998) was > 100 µM (inactive). The GI50 (SF-539) was > 100 µM (inactive), the GI50 (SF-268) was > 100 µM (inactive) and the GI50 (SR) was > 100 µM (inactive). The GI50 (M14) was > 100 µM (inactive), the GI50 (HT-29) was > 100 µM (inactive) and the GI50 (786-0) was > 100 µM (inactive). The GI50 (HL-60) was > 100 µM (inactive), the GI50 (MDA-MB-435) was > 100 µM (inactive) and the GI50 (SN12C) was > 100 µM (inactive). The GI50 (HOP-62) was > 100 µM (inactive), the GI50 (OVCAR-5) was > 100 µM (inactive) and the GI50 (SK-MEL-5) was > 100 µM (inactive). The GI50 (RXF 393) was > 100 µM (inactive), the GI50 (UO-31) was > 100 µM (inactive) and the GI50 (NCI-H226) was > 100 µM (inactive). The GI50 (SNB-75) was > 100 µM (inactive), the GI50 (MDA-MB-231) was > 100 µM (inactive) and the GI50 (DU-145) was > 100 µM (inactive). The GI50 (COLO 205) was > 100 µM (inactive), the GI50 (NCI/ADR-RES) was 29.4 µM (inactive) and the GI50 (MOLT-4) was > 100 µM (inactive). The GI50 (Malme-3M) was > 100 µM (inactive), the GI50 (MDA-N) was > 100 µM (inactive) and the GI50 (PC-3) was > 100 µM (inactive). The GI50 (SK-OV-3) was > 100 µM (inactive), the GI50 (NCI-H522) was > 100 µM (inactive) and the GI50 (RPMI-8226) was > 100 µM (inactive). For the same compound, the GI50 (CCRF-CEM) was > 100 µM (inactive), the GI50 (LOX IMVI) was > 100 µM (inactive) and the GI50 (SF-295) was > 100 µM (inactive). The GI50 (T47D) was > 100 µM (inactive), the GI50 (OVCAR-8) was > 100 µM (inactive) and the GI50 (SW-620) was > 100 µM (inactive). For the same compound, the GI50 (NCI-H23) was > 100 µM (inactive), the GI50 (KM12) was > 100 µM (inactive) and the GI50 (CAKI-1) was > 100 µM (inactive). For the same compound, the GI50 (UACC-62) was > 100 µM (inactive), the GI50 (UACC-257) was > 100 µM (inactive) and the GI50 (HCT-15) was > 100 µM. For the same compound, the GI50 (OVCAR-3) was > 100 µM (inactive), the GI50 (K562) was > 100 µM (inactive) and the GI50 (SNB-19) was > 100 µM (inactive). The GI50 (U-251) was > 100 µM (inactive), the GI50 (SK-MEL-28) was > 100 µM (inactive) and the GI50 (EKVX) was > 100 µM (inactive). The GI50 (ACHN) was > 100 µM (inactive).
